Active and inactive are the calls of the source. How the calls were made is not given here.
System: CCRIS mutagenicity, Ames/micronucleus/aberration tests
Assay: CCRIS mutagenicity studies
[1] = Test System: AMES SALMONELLA TYPHIMURIUM, Strain/Indicator: TA98, Metabolic Activation: NONE, Method: PREINCUBATION
[2] = Test System: AMES SALMONELLA TYPHIMURIUM, Strain/Indicator: TA100, Metabolic Activation: NONE, Method: PREINCUBATION
[3] = Test System: AMES SALMONELLA TYPHIMURIUM, Strain/Indicator: TA92, Metabolic Activation: NONE, Method: STANDARD PLATE
[4] = Test System: AMES SALMONELLA TYPHIMURIUM, Strain/Indicator: TA98, Metabolic Activation: NONE, Method: STANDARD PLATE
[5] = Test System: AMES SALMONELLA TYPHIMURIUM, Strain/Indicator: TA100, Metabolic Activation: NONE, Method: STANDARD PLATE
[6] = Test System: AMES SALMONELLA TYPHIMURIUM, Strain/Indicator: TA1535, Metabolic Activation: NONE, Method: STANDARD PLATE
[7] = Test System: AMES SALMONELLA TYPHIMURIUM, Strain/Indicator: TA1537, Metabolic Activation: NONE, Method: STANDARD PLATE
[8] = Test System: AMES SALMONELLA TYPHIMURIUM, Strain/Indicator: TA1538, Metabolic Activation: NONE, Method: STANDARD PLATE

Cc1cc2c(C)c3ccccc3nc2c2ccccc12
mutagenic call (Test System: AMES SALMONELLA TYPHIMURIUM, Strain/Indicator: TA97A, Metabolic Activation: NONE, Method: PREINCUBATION): active; positive | mutagenic call [1]: inactive; negative | mutagenic call [2]: active; positive | mutagenic call (Test System: AMES SALMONELLA TYPHIMURIUM, Strain/Indicator: TA102, Metabolic Activation: NONE, Method: PREINCUBATION): active; positive

Cc1ccc2cccnc2c1
mutagenic call (Test System: AMES SALMONELLA TYPHIMURIUM, Strain/Indicator: TA98, Metabolic Activation: HAMSTER, LIVER, S-9, AROCLOR 1254 (30%), Method: PREINCUBATION): active; positive | mutagenic call [1]: inactive; negative | mutagenic call (Test System: AMES SALMONELLA TYPHIMURIUM, Strain/Indicator: TA98, Metabolic Activation: RAT, LIVER, S-9, AROCLOR 1254 (30%), Method: PREINCUBATION): inactive; negative | mutagenic call (Test System: AMES SALMONELLA TYPHIMURIUM, Strain/Indicator: TA100, Metabolic Activation: HAMSTER, LIVER, S-9, AROCLOR 1254 (30%), Method: PREINCUBATION): active; positive | mutagenic call [2]: inactive; negative | mutagenic call (Test System: AMES SALMONELLA TYPHIMURIUM, Strain/Indicator: TA100, Metabolic Activation: RAT, LIVER, S-9, AROCLOR 1254 (30%), Method: PREINCUBATION): active; positive | mutagenic call (Test System: AMES SALMONELLA TYPHIMURIUM, Strain/Indicator: TA100, Metabolic Activation: RAT, LIVER, S-9, PHENOBARBITAL AND 5,6-BENZOFLAVONE, Method: PREINCUBATION): active; positive | mutagenic call (Test System: AMES SALMONELLA TYPHIMURIUM, Strain/Indicator: TA100, Metabolic Activation: RAT, LIVER, S-9, PHENOBARBITAL AND 5,6-NAPHTHOFLAVONE, Method: PREINCUBATION): active; positive | mutagenic call (Test System: AMES SALMONELLA TYPHIMURIUM, Strain/Indicator: TA100, Metabolic Activation: RAT, LIVER, S-9, Method: PREINCUBATION): active; positive

Cc1occc(=O)c1[O-].Cc1occc(=O)c1[O-].Cc1occc(=O)c1[O-].[Cr+3]
mutagenic call [3]: inactive; negative | mutagenic call [4]: inactive; negative | mutagenic call [5]: inactive; negative | mutagenic call (Test System: AMES SALMONELLA TYPHIMURIUM, Strain/Indicator: TA104, Metabolic Activation: NONE, Method: STANDARD PLATE): inactive; negative

Cc1c[nH]c2ccccc12
mutagenic call [2]: inactive; negative | mutagenic call (Test System: AMES SALMONELLA TYPHIMURIUM, Strain/Indicator: TA100, Metabolic Activation: RAT LIVER S-9, PHENOBARBITOL/BETA-NAPHTHOFLAVONE, Method: PREINCUBATION): inactive; negative

CC1CNCC(C)O1 (stereo not drawn)
mutagenic call (Test System: AMES SALMONELLA TYPHIMURIUM, Strain/Indicator: TA98, Metabolic Activation: HAMSTER, LIVER, S-9, AROCLOR 1254, Method: PREINCUBATION): inactive; negative | mutagenic call [1]: inactive; negative | mutagenic call (Test System: AMES SALMONELLA TYPHIMURIUM, Strain/Indicator: TA98, Metabolic Activation: RAT, LIVER, S-9, AROCLOR 1254, Method: PREINCUBATION): inactive; negative | mutagenic call (Test System: AMES SALMONELLA TYPHIMURIUM, Strain/Indicator: TA100, Metabolic Activation: HAMSTER, LIVER, S-9, AROCLOR 1254, Method: PREINCUBATION): inactive; negative | mutagenic call [2]: inactive; negative | mutagenic call (Test System: AMES SALMONELLA TYPHIMURIUM, Strain/Indicator: TA100, Metabolic Activation: RAT, LIVER, S-9, AROCLOR 1254, Method: PREINCUBATION): inactive; negative | mutagenic call (Test System: AMES SALMONELLA TYPHIMURIUM, Strain/Indicator: TA1537, Metabolic Activation: HAMSTER, LIVER, S-9, AROCLOR 1254, Method: PREINCUBATION): inactive; negative | mutagenic call (Test System: AMES SALMONELLA TYPHIMURIUM, Strain/Indicator: TA1537, Metabolic Activation: NONE, Method: PREINCUBATION): inactive; negative | mutagenic call (Test System: AMES SALMONELLA TYPHIMURIUM, Strain/Indicator: TA1537, Metabolic Activation: RAT, LIVER, S-9, AROCLOR 1254, Method: PREINCUBATION): inactive; negative

NC(=O)CNC(=O)N(CCCl)N=O
mutagenic call [6]: active; positive

Cc1ccc(NC(=O)CBr)cc1
mutagenic call (Test System: AMES SALMONELLA TYPHIMURIUM, Strain/Indicator: TA100, Metabolic Activation: MOUSE, LIVER, S-9, AROCLOR 1254, Method: STANDARD PLATE): inactive; negative | mutagenic call [5]: inactive; negative

CCCC(O)C(CC)CO (stereo not drawn)
mutagenic call (Test System: AMES SALMONELLA TYPHIMURIUM, Strain/Indicator: TA98, Metabolic Activation: HAMSTER, LIVER, S-9, AROCLOR 1254, Method: STANDARD PLATE): inactive; negative | mutagenic call [4]: inactive; negative | mutagenic call (Test System: AMES SALMONELLA TYPHIMURIUM, Strain/Indicator: TA98, Metabolic Activation: RAT, LIVER, S-9, AROCLOR 1254, Method: STANDARD PLATE): inactive; negative | mutagenic call (Test System: AMES SALMONELLA TYPHIMURIUM, Strain/Indicator: TA100, Metabolic Activation: HAMSTER, LIVER, S-9, AROCLOR 1254, Method: STANDARD PLATE): inactive; negative | mutagenic call [5]: inactive; negative | mutagenic call (Test System: AMES SALMONELLA TYPHIMURIUM, Strain/Indicator: TA100, Metabolic Activation: RAT, LIVER, S-9, AROCLOR 1254, Method: STANDARD PLATE): inactive; negative | mutagenic call (Test System: AMES SALMONELLA TYPHIMURIUM, Strain/Indicator: TA1535, Metabolic Activation: HAMSTER, LIVER, S-9, AROCLOR 1254, Method: STANDARD PLATE): inactive; negative | mutagenic call [6]: inactive; negative | mutagenic call (Test System: AMES SALMONELLA TYPHIMURIUM, Strain/Indicator: TA1535, Metabolic Activation: RAT, LIVER, S-9, AROCLOR 1254, Method: STANDARD PLATE): inactive; negative | mutagenic call (Test System: AMES SALMONELLA TYPHIMURIUM, Strain/Indicator: TA1537, Metabolic Activation: HAMSTER, LIVER, S-9, AROCLOR 1254, Method: STANDARD PLATE): inactive; negative | mutagenic call [7]: inactive; negative | mutagenic call (Test System: AMES SALMONELLA TYPHIMURIUM, Strain/Indicator: TA1538, Metabolic Activation: HAMSTER, LIVER, S-9, AROCLOR 1254, Method: STANDARD PLATE): inactive; negative | mutagenic call [8]: inactive; negative | mutagenic call (Test System: AMES SALMONELLA TYPHIMURIUM, Strain/Indicator: TA1538, Metabolic Activation: RAT, LIVER, S-9, AROCLOR 1254, Method: STANDARD PLATE): inactive; negative | mutagenic call (Test System: MOUSE LYMPHOMA, Strain/Indicator: L5178Y (TK+/TK-), Metabolic Activation: NONE, Method: SUSPENSION/PLATE): inactive; positive. reevaluation of results: negative | mutagenic call (Test System: MOUSE LYMPHOMA, Strain/Indicator: L5178Y (TK+/TK-), Metabolic Activation: RAT, LIVER, S-9, AROCLOR 1254, Method: SUSPENSION/PLATE): inactive; negative. reevaluation of results: negative

CC1Cc2cccc3c2N1C(C)C3.CC1Cc2cccc3c2N1C(C)C3.[Cl-].[Cl-].[Cl-].[Cl-].[Pt+2].[Pt+2] (stereo not drawn)
mutagenic call [3]: inactive; negative | mutagenic call [4]: inactive; negative | mutagenic call [5]: inactive; negative | mutagenic call (Test System: AMES SALMONELLA TYPHIMURIUM, Strain/Indicator: TA2410, Metabolic Activation: NONE, Method: STANDARD PLATE): inactive; negative | mutagenic call (Test System: E. COLI, Strain/Indicator: TM6, Metabolic Activation: NONE, Method: STANDARD PLATE): inactive; negative | mutagenic call (Test System: E. COLI, Strain/Indicator: TM9, Metabolic Activation: NONE, Method: STANDARD PLATE): inactive; negative

Nc1ccc(I)cc1
mutagenic call (End Point: IN VITRO MICRONUCLEUS, Test System: CHL/IU CELLS, Metabolic Activation: RAT, LIVER, S-9, PHENOBARBITAL AND 5,6-BENZOFLAVONE): inactive; negative

COc1ccc(/C(=C/C(=O)N2CCOCC2)c2ccc(F)cc2)cc1OC
mutagenic call (End Point: IN VITRO CHROMOSOMAL ABERRATIONS, Test System: CHINESE HAMSTER LUNG (CHL) CELLS, Metabolic Activation: NONE): inactive; negative | mutagenic call (End Point: IN VITRO CHROMOSOMAL ABERRATIONS, Test System: CHINESE HAMSTER LUNG (CHL) CELLS, Metabolic Activation: S-9): active; positive (structural changes)

Cc1ccc(-c2nc3n(c2[N+](=O)[O-])CCS3)cc1
mutagenic call [4]: inactive; negative | mutagenic call [5]: active; positive | mutagenic call [6]: inactive; negative | mutagenic call [7]: inactive; negative | mutagenic call [8]: inactive; negative

O=[N+]([O-])c1ccccc1SSC(F)=C(Cl)Cl
mutagenic call (Test System: AMES SALMONELLA TYPHIMURIUM, Strain/Indicator: TA100(DNP6), Metabolic Activation: NONE, Method: PREINCUBATION): active; positive | mutagenic call (Test System: AMES SALMONELLA TYPHIMURIUM, Strain/Indicator: TA100(NR), Metabolic Activation: NONE, Method: PREINCUBATION): active; positive

From PubChem BioAssay AID1259407 (Chemical Carcinogenesis Research Information System (CCRIS), 2018)
